US9957273B2, “5-substituted 7- [4-(2-pyridyl)phenylmethylamino] -3-isopropylpyrazolo4,3-D]pyrimidine derivatives, use thereof as medicaments, and pharmaceutical compositions” (USTAV EXPERIMENTALNI BOTANIKY AV CR, V.V.I., priority 2015, dated 2018)

Tests used:
[1] = test system: THP1 (human monocytic cell line); test: MTT cytotoxicity assay, leukemic cell line THP1; type: cell-based; details: Homo sapiens, THP-1, 72 h, three days
Source text: (§1) Cytotoxicity of the compounds is the major property determining their antileukemic efficacy in vivo. One of the parameters used, as the basis for cytotoxicity assays, is the metabolic activity of viable cells. For example, a microtiter assay, which uses (3-(4,5-dimethylthiazol-2-yl)-2,5-diphenyltetrazolium bromide (MTT), is widely used to quantitate cell proliferation and cytotoxicity. This assay is widely used in drug screening programs and in chemosensitivity testing. Because only metabolically active living cells reduce MTT to correspond purple formazan dye, these assays detect viable cells exclusively. The quantity of reduced MTT corresponds to the number of vital cells in the culture.
(§2) The compounds were assayed using the following leukemic cell lines: K562 (human chronic myelogenous leukaemia), HL60 (human promyelocytic leukaemia), CEM (human lymphoblastoid leukaemia), THP1 (human monocytic cell line), MV4; 11 (acute myelocytic leukemia). All cell lines were grown in RPMI medium supplemented with fetal bovine serum and L-glutamine and maintained at 37° C. in a humidified atmosphere with 5% CO2. For cytotoxicity assays, 2000-5000 cells were seeded into each well of 96 well plate, allowed to stabilize for at least 8 h and then tested compounds were added at various concentrations ranging from 100 to 0.01 μM in triplicates. After three days, MTT solution (5 mg/ml; Sigma, St. Louis, USA) was added to cells and medium was replaced with DMSO after five hours. The absorbance was measured at 620 nm by employing a microplate reader. MTT assays were repeated 3 times for each drug application and untreated cells were used as reference.

[2] = test system: MCF7 (breast adenocarcinoma); test: MTT cytotoxicity assay, solid cancer cell line MCF7; type: cell-based; details: Homo sapiens, MCF7, 72 h, three days
Method: as §2, with “following” for “following leukemic”, “G361 (malignant melanoma), MCF7 (breast adenocarcinoma), PLC/PRF/5 (liver hepatoma), PANC-1 (pancreatic carcinoma) and HCT116 (colon carcinoma).” for “K562 (human chronic myelogenous leukaemia), HL60 (human promyelocytic leukaemia), CEM (human lymphoblastoid leukaemia), THP1 (human monocytic cell line), MV4; 11 (acute myelocytic leukemia).”, “DMEM” for “RPMI”, “4000-10000” for “2000-5000”, “of a” for “of”, “16” for “8”

[3] = test system: CEM (human lymphoblastoid leukaemia); test: MTT cytotoxicity assay, leukemic cell line CEM; type: cell-based; details: Homo sapiens, 72 h, three days
Source text: as §1, §2

[4] = test system: HUVECs (human umbilical vein endothelial cells); test: HUVEC migration (scratch) assay; type: cell-based; details: 16 h, read-out: Inhibition of migration (EC50)
Method: (§3) To verify that novel compounds have anti-vascularisation properties, we analyzed their influence on the proliferation and migration of HUVECs. HUVECs (human umbilical vein endothelial cells) were purchased from Promocell (Heidelberg, Germany) and cultured in endothelial cell growth medium (ECGM, Promocell, Heidelberg, Germany) containing 10% FCS (Biochrom, Berlin, Germany). Experiments were performed using cells at passage 3.
For migration assay, confluent HUVECs were scratched with a pipette tip and immediately treated with either starvation medium M199 (serum-free, negative control; PAN Biotech) or full endothelial cell growth medium (positive control). After 16 h, cells were fixed with 3% formaldehyde and images were taken using the TILLvisON system (Lochham, Germany) connected to an Axiovert 200 microscope (Zeiss, Germany). Evaluation of pictures was made by S.CO LifeScience (Garching, Germany). Migration was quantified as the ratio of the area covered with cells and the area of the cell free wound.

[5] = test system: MV4;11 (acute myelocytic leukemia); test: MTT cytotoxicity assay, leukemic cell line MV4;11; type: cell-based; details: Homo sapiens, MV4-11, 72 h, three days
Source text: as §1, §2

[6] = test system: HCT116 (colon carcinoma); test: MTT cytotoxicity assay, solid cancer cell line HCT116; type: cell-based; details: Homo sapiens, HCT-116, 72 h, three days
Method: as §2, with “following” for “following leukemic”, “G361 (malignant melanoma), MCF7 (breast adenocarcinoma), PLC/PRF/5 (liver hepatoma), PANC-1 (pancreatic carcinoma) and HCT116 (colon carcinoma).” for “K562 (human chronic myelogenous leukaemia), HL60 (human promyelocytic leukaemia), CEM (human lymphoblastoid leukaemia), THP1 (human monocytic cell line), MV4; 11 (acute myelocytic leukemia).”, “DMEM” for “RPMI”, “4000-10000” for “2000-5000”, “of a” for “of”, “16” for “8”

[7] = biological target: T1, CDK2/Cyclin E (Homo sapiens, UniProt P24941); test: CDK2/Cyclin E kinase inhibition (33P-ATP, histone H1); type: biochemical; details: 15 μM ATP
T1 construct: made in house; host or cells: Sf9 insect cells (baculovirus)
Method: CDK2/Cyclin E kinase was produced in Sf9 insect cells via baculoviral infection and purified on a NiNTA column (Qiagen). The kinase reactions were assayed with 1 mg/mL histone H1 in the presence of 15 μM ATP, 0.05 μCi [γ-^33P]ATP and of the test compound in a final volume of 10 μL, all in a reaction buffer (60 mM HEPES-NaOH, pH 7.5, 3 mM MgCl2, 3 mM MnCl2, 3 μM Na-orthovanadate, 1.2 mM DTT, 2.5 μg/50 μl PEG20.000). CDK5/p35 was purchased from ProQinase GmbH. The kinase reactions were assayed with 1 mg/mL histone H1 in the presence of 0.15 μM ATP, 0.05 μCi [γ-^33P]ATP and of the test compound in a final volume of 10 μL, all in a reaction buffer (60 mM HEPES-NaOH, pH 7.5, 3 mM MgCl2, 3 mM MnCl2, 3 μM Na-orthovanadate, 1.2 mM DTT, 2.5 μg/50 μl PEG20.000).
(§4) The reactions were stopped by adding 5 μL of 3% aq H3PO4. Aliquots were spotted onto P-81 phosphocellulose (Whatman), washed 3× with 0.5% aq H3PO4 and finally air-dried.

[8] = test system: HL60 (human promyelocytic leukaemia); test: MTT cytotoxicity assay, leukemic cell line HL60; type: cell-based; details: Homo sapiens, HL-60, 72 h, three days
Source text: as §1, §2

[9] = test system: PANC-1 (pancreatic carcinoma); test: MTT cytotoxicity assay, solid cancer cell line PANC-1; type: cell-based; details: Homo sapiens, PANC-1, 72 h, three days
Method: as §2, with “following” for “following leukemic”, “G361 (malignant melanoma), MCF7 (breast adenocarcinoma), PLC/PRF/5 (liver hepatoma), PANC-1 (pancreatic carcinoma) and HCT116 (colon carcinoma).” for “K562 (human chronic myelogenous leukaemia), HL60 (human promyelocytic leukaemia), CEM (human lymphoblastoid leukaemia), THP1 (human monocytic cell line), MV4; 11 (acute myelocytic leukemia).”, “DMEM” for “RPMI”, “4000-10000” for “2000-5000”, “of a” for “of”, “16” for “8”

[10] = test system: HUVECs (human umbilical vein endothelial cells); test: HUVEC proliferation assay (crystal violet); type: cell-based; details: Homo sapiens, HUVEC, 72 h, read-out: Inhibition of proliferation (EC50)
Method: as §3
For proliferation assay, 1.5×10^3 HUVECs were cultured for 24 h. Afterwards, cells were either left untreated or treated with novel compounds for 72 h. Proliferation assay was performed using crystal violet as described previously (Koltermann et al. 2007, Cell Mol. Life Sci. 64:1715-1722).

[11] = test system: PLC/PRF/5 (liver hepatoma); test: MTT cytotoxicity assay, solid cancer cell line PLC/PRF/5; type: cell-based; details: Homo sapiens, PLC-PRF-5, 72 h, three days
Method: as §2, with “following” for “following leukemic”, “G361 (malignant melanoma), MCF7 (breast adenocarcinoma), PLC/PRF/5 (liver hepatoma), PANC-1 (pancreatic carcinoma) and HCT116 (colon carcinoma).” for “K562 (human chronic myelogenous leukaemia), HL60 (human promyelocytic leukaemia), CEM (human lymphoblastoid leukaemia), THP1 (human monocytic cell line), MV4; 11 (acute myelocytic leukemia).”, “DMEM” for “RPMI”, “4000-10000” for “2000-5000”, “of a” for “of”, “16” for “8”

[12] = test system: G361 (malignant melanoma); test: MTT cytotoxicity assay, solid cancer cell line G361; type: cell-based; details: Homo sapiens, G-361, 72 h, three days
Method: as §2, with “following” for “following leukemic”, “G361 (malignant melanoma), MCF7 (breast adenocarcinoma), PLC/PRF/5 (liver hepatoma), PANC-1 (pancreatic carcinoma) and HCT116 (colon carcinoma).” for “K562 (human chronic myelogenous leukaemia), HL60 (human promyelocytic leukaemia), CEM (human lymphoblastoid leukaemia), THP1 (human monocytic cell line), MV4; 11 (acute myelocytic leukemia).”, “DMEM” for “RPMI”, “4000-10000” for “2000-5000”, “of a” for “of”, “16” for “8”

[13] = test system: K562 (human chronic myelogenous leukaemia); test: MTT cytotoxicity assay, leukemic cell line K562; type: cell-based; details: Homo sapiens, K562, 72 h, three days
Source text: as §1, §2

[14] = biological target: T2, CDK5/p35 (Homo sapiens, UniProt Q00535); test: CDK5/p35 kinase inhibition (33P-ATP, histone H1); type: biochemical; details: 0.15 μM ATP
T2 construct: purchased ProQinase GmbH
T2 sequence (Q00535 whole entry): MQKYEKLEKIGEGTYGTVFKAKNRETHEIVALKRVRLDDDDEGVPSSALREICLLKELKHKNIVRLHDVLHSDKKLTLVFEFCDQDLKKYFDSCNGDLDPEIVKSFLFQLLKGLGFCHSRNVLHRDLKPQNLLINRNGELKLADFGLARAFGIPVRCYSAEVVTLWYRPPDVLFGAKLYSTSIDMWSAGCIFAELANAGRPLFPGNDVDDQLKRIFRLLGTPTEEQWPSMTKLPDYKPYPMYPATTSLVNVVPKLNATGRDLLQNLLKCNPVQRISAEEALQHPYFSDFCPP
T2 sequence (Q15078 whole entry partner): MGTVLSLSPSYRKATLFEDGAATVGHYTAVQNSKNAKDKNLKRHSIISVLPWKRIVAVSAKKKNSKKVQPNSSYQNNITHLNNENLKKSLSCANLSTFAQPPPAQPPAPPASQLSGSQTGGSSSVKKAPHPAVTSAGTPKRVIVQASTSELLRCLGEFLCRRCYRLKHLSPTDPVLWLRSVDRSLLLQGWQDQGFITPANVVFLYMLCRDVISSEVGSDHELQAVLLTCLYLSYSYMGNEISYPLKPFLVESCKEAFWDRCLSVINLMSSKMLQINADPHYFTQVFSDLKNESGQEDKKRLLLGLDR
Method: CDK2/Cyclin E kinase was produced in Sf9 insect cells via baculoviral infection and purified on a NiNTA column (Qiagen). […] CDK5/p35 was purchased from ProQinase GmbH.
as §4

IC50 [7] [µM]	SMILES	IC50 [1] [µM]	IC50 [2] [µM]	IC50 [3] [µM]	EC50 [4] [nM]	IC50 [5] [µM]	IC50 [6] [µM]	IC50 [8] [µM]	IC50 [9] [µM]	EC50 [10] [nM]	IC50 [11] [µM]	IC50 [12] [µM]	IC50 [13] [µM]	IC50 [14] [µM]
0.054	CC[C@H](CO)Nc1nc(NCc2ccc(-c3ccccn3)cc2)c2n[nH]c(C(C)C)c2n1 [Compound 83]	0.01	0.05	0.06	39	0.07	0.03	0.02	0.02	34	0.02	0.04	–	–
0.023	CC(C)c1[nH]nc2c(NCc3ccc(-c4ccccn4)cc3)nc(NC3CCCCC3N)nc12 (stereo not shown) [Compound 65]	0.11	0.06	0.14	77	0.38	0.08	0.22	0.02	5	0.05	0.04	0.3	0.048
0.021	CC(C)c1[nH]nc2c(NCc3ccc(-c4ccccn4)cc3)nc(NC[C@@H](C)O)nc12 [Compound 27]	0.03	0.03	0.01	35	0.06	0.1	0.02	0.07	33	0.04	0.08	0.06	–
–	CC(C)c1n[nH]c2c(NCc3ccc(-c4ccccn4)cc3)nc(S(C)(=O)=O)nc12 [Compound 7]	1.64	0.46	0.93	550	1.69	1.97	0.52	1.56	648	0.21	0.43	0.64	0.165
